# Assay results: publication PMC12687421, “Characterisation of an allosteric site in PLCγ enzymes and implications for development of their specific inhibitors” (Biochemical Journal, 2025)
# Tests used:
# [1] = target: T1, PLCγ1^S345F (Homo sapiens, UniProt P19174, S345F); test: IP-ONE assay in HEK stable cell line expressing PLCγ1^S345F; format: cell-based
# T1 construct: Avi-tag (N); His-tag (N); expressed in transfected cells
# T1 sequence (P19174 1-1290 S345F): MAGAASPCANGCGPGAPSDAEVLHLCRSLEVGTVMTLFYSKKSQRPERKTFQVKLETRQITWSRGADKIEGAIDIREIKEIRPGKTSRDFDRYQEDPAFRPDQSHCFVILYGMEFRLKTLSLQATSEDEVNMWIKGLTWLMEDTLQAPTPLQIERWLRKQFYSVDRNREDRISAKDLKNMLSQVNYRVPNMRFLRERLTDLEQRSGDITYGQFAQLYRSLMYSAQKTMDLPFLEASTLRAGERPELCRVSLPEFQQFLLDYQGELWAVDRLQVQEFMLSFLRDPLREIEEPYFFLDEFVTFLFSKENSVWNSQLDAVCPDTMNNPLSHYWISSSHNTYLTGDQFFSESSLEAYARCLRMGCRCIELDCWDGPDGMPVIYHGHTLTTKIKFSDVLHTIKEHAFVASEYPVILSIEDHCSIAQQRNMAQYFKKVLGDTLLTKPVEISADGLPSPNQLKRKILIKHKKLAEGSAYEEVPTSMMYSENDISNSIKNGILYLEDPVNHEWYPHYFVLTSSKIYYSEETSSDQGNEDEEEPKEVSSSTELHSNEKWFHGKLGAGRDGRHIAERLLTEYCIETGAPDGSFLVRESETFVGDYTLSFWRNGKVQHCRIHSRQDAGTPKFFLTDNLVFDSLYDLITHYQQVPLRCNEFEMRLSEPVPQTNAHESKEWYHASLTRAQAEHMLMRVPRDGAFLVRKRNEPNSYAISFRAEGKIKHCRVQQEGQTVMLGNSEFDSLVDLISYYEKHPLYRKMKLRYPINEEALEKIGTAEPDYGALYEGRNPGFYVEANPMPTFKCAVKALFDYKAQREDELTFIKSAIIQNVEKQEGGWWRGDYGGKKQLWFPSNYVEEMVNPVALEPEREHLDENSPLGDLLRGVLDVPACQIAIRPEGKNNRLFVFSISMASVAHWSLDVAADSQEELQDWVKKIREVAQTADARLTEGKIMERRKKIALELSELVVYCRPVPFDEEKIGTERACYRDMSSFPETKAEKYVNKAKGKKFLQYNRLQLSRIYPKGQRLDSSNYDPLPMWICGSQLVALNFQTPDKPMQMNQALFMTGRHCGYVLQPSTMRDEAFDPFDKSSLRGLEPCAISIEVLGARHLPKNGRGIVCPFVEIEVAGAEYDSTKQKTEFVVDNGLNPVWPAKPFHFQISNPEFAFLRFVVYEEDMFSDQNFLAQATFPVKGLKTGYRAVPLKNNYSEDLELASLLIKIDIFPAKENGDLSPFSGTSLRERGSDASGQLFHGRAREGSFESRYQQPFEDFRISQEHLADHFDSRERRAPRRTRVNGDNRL
# Text: (§1) For generating HEK cell lines that stably express PLC variants, an in-house Gateway compatible, Lenti viral vector was generated using In-Fusion cloning (Takara Bio) following manufacturer’s protocols. The vector backbone consisted of pLenti PGK Puro DEST (Addgene 19068). A KOZAK sequence, Avi-tag and His-tag (KAH cassette) was inserted between the PGK promoter and the attR1 vector regions. An IRES2 EmGFP cassette was inserted between the attR2 and WPRE regions. Both cassettes were PCR amplified from vector pHR-CMV-TetO2_3C-Avi-His6_IRES-EmGFP (Addgene 113888). Finally, a BirA ORF was cloned in-frame upstream of the EmGFP, which would express as a BirA-EmGFP fusion protein. The resulting Gateway compatible destination vector was used in the LR reaction (Thermo Fisher) with pENTR207 clones containing the PLCγ1^S345F or an activated version of PLCδ1, where the amino acids 445–487 had been deleted (PLCδ1Δ^44), to generate their respective expression clones ready for preparing stable cell lines in HEK.
# (§2) Stable cell lines overexpressing PLCγ1^S345F or PLCδ1^Δ44 were prepared as described in [28]. […] Fluorescence-activated cell sorting (FACS) was used to select the top 10% of GFP-expressing cells. […]
# (§3) PLC activity in cell lines was measured using the IP-ONE assay according to the manufacturer’s instructions as described in [28]. […]
# [2] = target: T2, PLCδ1^Δ44 (Homo sapiens, UniProt P51178, DEL445-487); test: IP-ONE assay in HEK stable cell line expressing PLCδ1^Δ44; format: cell-based
# T2 construct: Avi-tag (N); His-tag (N); expressed in transfected cells
# T2 sequence (P51178 with tags, fused parts or gaps DEL445-487): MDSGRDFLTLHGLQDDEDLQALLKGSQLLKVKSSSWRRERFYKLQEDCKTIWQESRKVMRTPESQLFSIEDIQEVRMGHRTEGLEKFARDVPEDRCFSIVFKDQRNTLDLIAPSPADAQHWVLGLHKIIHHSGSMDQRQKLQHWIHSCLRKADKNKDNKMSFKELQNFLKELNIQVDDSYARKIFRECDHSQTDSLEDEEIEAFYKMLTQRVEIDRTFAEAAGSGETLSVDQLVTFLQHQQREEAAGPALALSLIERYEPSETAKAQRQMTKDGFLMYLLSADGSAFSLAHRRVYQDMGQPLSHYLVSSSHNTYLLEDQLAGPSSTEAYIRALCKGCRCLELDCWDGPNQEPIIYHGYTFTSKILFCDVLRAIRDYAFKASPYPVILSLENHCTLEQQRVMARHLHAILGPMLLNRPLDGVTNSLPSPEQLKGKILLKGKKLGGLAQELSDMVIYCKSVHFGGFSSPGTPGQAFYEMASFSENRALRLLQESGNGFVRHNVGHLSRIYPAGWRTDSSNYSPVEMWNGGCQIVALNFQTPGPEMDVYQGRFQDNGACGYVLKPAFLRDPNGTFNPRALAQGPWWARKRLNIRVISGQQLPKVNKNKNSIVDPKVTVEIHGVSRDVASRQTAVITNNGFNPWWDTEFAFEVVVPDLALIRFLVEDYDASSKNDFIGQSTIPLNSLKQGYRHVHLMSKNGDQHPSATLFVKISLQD
# Text: as §1, §2, §3
# [3] = target: T3, PLCγ1^S345F (Homo sapiens, UniProt P19174, I813T/S345F); test: Fluorescence polarisation competition with TNP-ATP; format: binding; conditions: fixed TNP-ATP
# T3 construct: His-tag (N); Myc-tag (C); made in house; host or cells: Escherichia coli T7 Express lysY/Iq
# T3 sequence (P19174 1-1291 isoform P19174-2 S345F/I813T): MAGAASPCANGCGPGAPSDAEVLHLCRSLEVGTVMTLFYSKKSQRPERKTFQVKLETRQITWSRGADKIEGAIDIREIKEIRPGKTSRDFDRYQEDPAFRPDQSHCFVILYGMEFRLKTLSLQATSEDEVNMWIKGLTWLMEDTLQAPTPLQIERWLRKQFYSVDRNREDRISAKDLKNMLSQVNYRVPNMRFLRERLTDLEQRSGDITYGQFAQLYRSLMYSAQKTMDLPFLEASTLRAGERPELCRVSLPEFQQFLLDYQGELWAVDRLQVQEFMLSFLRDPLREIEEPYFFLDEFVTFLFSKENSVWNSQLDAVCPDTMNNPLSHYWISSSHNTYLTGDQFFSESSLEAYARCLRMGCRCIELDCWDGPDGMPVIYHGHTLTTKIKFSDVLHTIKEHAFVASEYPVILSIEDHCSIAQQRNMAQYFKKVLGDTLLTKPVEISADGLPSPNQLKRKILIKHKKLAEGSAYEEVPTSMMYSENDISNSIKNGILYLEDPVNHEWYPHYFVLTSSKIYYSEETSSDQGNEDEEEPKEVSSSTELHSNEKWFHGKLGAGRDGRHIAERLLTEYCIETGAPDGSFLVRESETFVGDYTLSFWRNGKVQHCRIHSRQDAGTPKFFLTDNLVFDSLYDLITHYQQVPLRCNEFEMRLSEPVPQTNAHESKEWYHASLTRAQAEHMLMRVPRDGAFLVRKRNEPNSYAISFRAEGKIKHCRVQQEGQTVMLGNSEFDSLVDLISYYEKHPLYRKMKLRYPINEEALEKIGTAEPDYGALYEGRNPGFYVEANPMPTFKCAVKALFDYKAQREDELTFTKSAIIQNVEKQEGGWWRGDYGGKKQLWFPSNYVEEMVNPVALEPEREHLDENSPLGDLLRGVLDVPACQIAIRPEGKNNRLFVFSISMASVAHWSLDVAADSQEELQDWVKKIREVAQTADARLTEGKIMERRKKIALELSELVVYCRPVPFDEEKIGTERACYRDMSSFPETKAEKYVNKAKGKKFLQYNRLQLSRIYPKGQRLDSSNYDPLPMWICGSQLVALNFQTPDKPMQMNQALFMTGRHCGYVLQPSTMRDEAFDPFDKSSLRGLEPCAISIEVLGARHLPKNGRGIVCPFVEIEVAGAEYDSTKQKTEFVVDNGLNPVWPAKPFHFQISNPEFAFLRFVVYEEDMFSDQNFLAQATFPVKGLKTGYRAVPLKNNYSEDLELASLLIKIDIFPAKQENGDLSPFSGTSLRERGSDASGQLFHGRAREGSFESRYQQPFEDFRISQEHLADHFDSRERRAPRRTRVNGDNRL
# Method: Experiments were performed in black small volume 384-well plates (Greiner) on a Pherastar FS microplate reader (BMG Labtech) utilising an FP module with Excitation 485 nm and Emission 520 nm. […] PLCγ1^S345F protein was titrated against the fixed concentration of TNP-ATP and the FP data fit in GraphPad Prism using the One site Total binding model. […] Equal amounts of DMSO only were added in a parallel FP experiment. Generated data was also fit in GraphPad Prism using the One site -Total binding model. Each experiment was performed in triplicate and the data presented as the mean and SD.
# [4] = test system: CD95–PLCγ1 interaction; set-up: method as in PMID 30429604, PMID 31548507; conditions: cited from earlier work
# [5] = test system: disease mouse model; set-up: method as in PMID 30429604, PMID 31548507; conditions: cited from earlier work
compound,measurement,setting,value
CC(=O)OC[C@H]1O[C@@H](n2ncc(=O)[nH]c2=O)[C@H](OC(C)=O)[C@@H]1OC(C)=O [Azaribine],inhibition of PLC activity of PLCγ1^S345F in cell-based assay,[1],potently inhibited
same,IC50,"[1]; PLCγ1 S345F, read-out: IC50, PLC activity (IP1) in stable cell line",1600 nM
same,effect on PLC activity of PLCδ1 in stable cell line,[2],no effect
same,"IC50, PLC activity (IP1) in stable cell line",[2]; PLCδ1 Δ44,no inhibition
O=P(O)(O)CP(=O)(O)OC[C@H]1O[C@@H](n2cnc3c(NCc4ccccc4)ncnc32)[C@H](O)[C@@H]1O [PSB 12379],competition with binding of fluorescently labelled ATP analogue (TNP-ATP),[3],competed
CC(C)c1nc(CN(C)C(=O)N[C@H](C(=O)N[C@@H](Cc2ccccc2)C[C@H](O)[C@H](Cc2ccccc2)NC(=O)OCc2cncs2)C(C)C)cs1 [ritonavir],CD95–PLCγ1 interaction,[4],disrupt
same,clinical symptoms in a disease mouse model,[5],alleviating clinical symptoms
